According to publication PMC9223267, “Serine hydroxymethyltransferase as a potential target of antibacterial agents acting synergistically with one-carbon metabolism-related inhibitors” (Communications Biology, 2022):
Values joined by “and” are separate entries in the source; they are usually repeats but may differ in a detail not shown here. Equal values may be shown once. “Also recorded” adds a separate entry of the source. Read-outs that look alike come from different tables or passages of the source.

Assays:
[1] = tested on: E. coli; assay: Antibacterial activity evaluation (turbidity, OD600); format: cell-based, Escherichia coli (ATCC25922); details: Escherichia coli, E. coli ATCC25922
Description: (§1) E. faecium and E. faecalis were diluted to turbidity equivalents that matched 1.0 McFarland (McF) standard in distilled water (S. aureus and E. coli were also diluted to 0.5 McF), and additionally diluted 1:200 in Mueller–Hinton (MH) broth. The designated concentrations of the tested compounds were prepared by ten-fold serial dilutions directly in 96-well microtiter plates (IWAKI, Shizuoka, Japan), as previously described. […] The other compounds were serially diluted from 20 μM downwards (final concentration, 10 μM). […] Positive control wells included bacteria without any compound, and the negative control wells only contained MH broth. […] The optical density at 600 nm (OD600) was measured using a GloMax microtiter plate reader (Promega, WI, USA), and the EC50 values of each test compound and standard error were calculated by Microsoft Excel function, AVERAGE and STDEV/SQRT.

[2] = tested on: E. faecalis; assay: as above; format: cell-based, Enterococcus faecalis (JCM7783); details: Enterococcus faecalis, E. faecalis JCM7783
Description: as §1

[3] = tested on: efmSHMT; format: binding, Enterococcus faecium; details: DSF; final drug concentration 50 μM
Description: Protein samples were prepared as 20 μL aliquots containing 0.1 mg/mL protein (efmSHMT/ecSHMT), 1 μL of the ligand in DMSO (final drug concentration, 50 μM) and 2% or 4% SYPRO Orange (Invitrogen, MA, USA). […] Melting points were evaluated as the half-point of the maximum intensity of each curve.

[4] = tested on: E. faecium; assay: Antibacterial assay with an excess concentration of biomolecules (Ser, Gly, inosine, dT, FA); format: cell-based, Enterococcus faecium (JCM5804)
Description: as §1
The ratio of the control EC50 (no competitors added) to the experimental EC50 (competitors added) was calculated for each test substance.

[5] = tested on: E. faecium; assay: Antibacterial activity evaluation (turbidity, OD600); format: cell-based, Enterococcus faecium (JCM5804); details: Enterococcus faecium
Description: as §1

[6] = target: efmSHMT (Enterococcus faecium, UniProt I3U4H4, M1V); assay: biochemical; format: binding; details: 5 μM efmSHMT; 10 mM Gly and 100 μM Ser; Cheng-Prusoff
Description: After adding Me-THF, the efmSHMT solution was incubated for 30 min at room temperature. The optical density at 500 and 600 nm (OD500 and OD600) were then measured using a nanodrop spectrophotometer[24],[25]. OD600 was used as the background. After detection, each concentration of inhibitor was added to the efmSHMT solution and incubated for 30 min at room temperature. OD500 and OD600 were measured. The relative OD500 intensity was calculated as relative OD500 = (OD500 – OD600)/(MAXOD500 – OD600), where MAXOD500 is the average OD500 value in the presence of 1000, 2000 and 4000 μM Me-THF without inhibitors. […] Here, IC50 is the concentration of inhibitor added to the efmSHMT solution and [Me-THF] is the EC50 in the presence of the inhibitor concentration. [EC50 without inhibitor] is the EC50 of Me-THF in the absence of the inhibitor.

[7] = tested on: E. faecium; assay: Bacterial viability assay (Microbial Viability Assay Kit-WST, OD450); format: cell-based, Enterococcus faecium; details: for Relative bacterial viability: single values
Description: Living E. faecium were determined using the Microbial Viability Assay Kit-WST (DOJINDO, Tokyo, Japan). […] Positive control wells included bacteria seeded into MH broth without compounds, and the negative control wells contained MH broth only. […] Five microlitres of the colouring reagent were added to each well of the 96-well plate every 2 h after starting incubation with each compound.

[8] = tested on: S. aureus; assay: Antibacterial activity evaluation (turbidity, OD600); format: cell-based, Staphylococcus aureus (ATCC29213); details: Staphylococcus aureus, S. aureus ATCC29213
Description: as §1

[9] = tested on: Caski cells; assay: Cell cytotoxicity assay (Cell Counting Kit-8, 5 days); format: cell-based, human; details: with each cell line (Caski, Hep-2 and Calu-3)
Description: After serial dilution, 100 μL of FBS-containing medium including the cells was added to each well of the plate. […] All CC50 determining assays were conducted in duplicate or triplicate[39],[40].

[10] = read-out: pEC50 ± S.E. (converted)
[11] = Enterococcus faecium, JCM5804, E. faecium JCM5804, 1 mM Inosine, read-out: EC50
[12] = Enterococcus faecium, JCM5804, E. faecium JCM5804, 1 mM Inosine, read-out: pEC50 ± S.E. (converted)
[13] = Enterococcus faecium, JCM5804, E. faecium JCM5804, 1 mM deoxythymidine, read-out: EC50
[14] = Enterococcus faecium, JCM5804, E. faecium JCM5804, 1 mM deoxythymidine, read-out: pEC50 ± S.E. (converted)
[15] = Enterococcus faecium, JCM5804, E. faecium JCM5804, 10 mM Glycine, read-out: EC50
[16] = Enterococcus faecium, JCM5804, E. faecium JCM5804, 10 mM Glycine, read-out: pEC50 ± S.E. (converted)
[17] = Enterococcus faecium, JCM5804, E. faecium JCM5804, 100 mM Serine, read-out: EC50
[18] = Enterococcus faecium, JCM5804, E. faecium JCM5804, 100 mM Serine, read-out: pEC50 ± S.E. (converted)
[19] = Enterococcus faecium, JCM5804, E. faecium JCM5804, 0.1 M folate, read-out: EC50
[20] = Enterococcus faecium, JCM5804, E. faecium JCM5804, 0.1 M folate, read-out: pEC50 ± S.E. (converted)

efmSHMT (Enterococcus faecium, UniProt I3U4H4, M1V), sequence (I3U4H4 whole entry M1V): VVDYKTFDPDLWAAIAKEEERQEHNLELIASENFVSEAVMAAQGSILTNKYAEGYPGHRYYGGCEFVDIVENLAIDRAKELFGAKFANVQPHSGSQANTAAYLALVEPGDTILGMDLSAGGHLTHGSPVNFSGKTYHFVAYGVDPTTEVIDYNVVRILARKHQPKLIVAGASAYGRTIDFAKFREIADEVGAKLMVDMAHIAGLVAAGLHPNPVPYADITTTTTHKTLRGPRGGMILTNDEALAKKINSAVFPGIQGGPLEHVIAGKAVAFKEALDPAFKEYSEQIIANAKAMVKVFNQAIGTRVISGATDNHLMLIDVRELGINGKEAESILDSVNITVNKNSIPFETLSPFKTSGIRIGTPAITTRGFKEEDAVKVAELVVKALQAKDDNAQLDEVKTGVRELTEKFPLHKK

Work on `CN(Cc1cnc2nc(N)nc(N)c2n1)c1ccc(C(=O)N[C@@H](CCC(=O)O)C(=O)O)cc1` [MTX, methotrexate] yielded an EC50 ([1]; read-out: EC50) greater than 100 µM, an EC50 [1, 10] greater than 100 µM and an EC50 ([2]; read-out: EC50) of 14 µM. For the same compound, the EC50 [2, 10] was 15.8 µM, the “ΔTm (thermal stability of efmSHMT)” value [3] was “did not stabilise efmSHMT significantly” and the EC50 [4, 11] was 0.0024 µM. It also gave an EC50 [4, 12] of 0.00251 µM, an EC50 [4, 13] greater than 100 µM and an EC50 [4, 14] greater than 100 µM. The EC50 [4, 15] was 0.0028 µM, the EC50 [4, 16] was 0.00251 µM and the EC50 [4, 17] was 0.0026 µM. The EC50 [4, 18] was 0.00251 µM, the EC50 [4, 19] was 8.5 µM and the EC50 [4, 20] was 7.94 µM. For the same compound, the EC50 ([5]; JCM5804, E. faecium JCM5804, read-out: EC50) was 0.0036 µM, the EC50 ([5]; JCM5804, E. faecium JCM5804, read-out: pEC50 ± S.E. (converted)) was 0.00398 µM and the Ki [6] was “did not change the OD500; also recorded: did not bind”. The Relative bacterial viability ([7]; 2 nM, 0 hours) was 0.02233 and 0.0177 and 0.02678 and 0.02266 and 0.01761 and 0.017 and 0.0195 and 0.01799, the Relative bacterial viability ([7]; 2 nM, 2 hours) was 0.03007 and 0.03198 and 0.04012 and 0.03501 and 0.02569 and 0.02735 and 0.02947 and 0.02784 and the Relative bacterial viability ([7]; 2 nM, 6 hours) was 0.8015 and 0.7552 and 0.8948 and 0.8943 and 0.5687 and 0.5754 and 0.5661 and 0.5425. For the same compound, the Relative bacterial viability ([7]; 2 nM, 8 hours) was 0.6487 and 0.7535 and 0.8184 and 0.7635 and 0.7144 and 0.6621 and 0.6673 and 0.7812, the Relative bacterial viability ([7]; 2 nM, 10 hours) was 0.7053 and 0.6673 and 0.7036 and 0.6902 and the Relative bacterial viability ([7]; 2 nM, 12 hours) was 0.8527 and 0.9211 and 0.863 and 0.9139 and 0.786 and 0.828 and 0.8102 and 0.8671. The Relative bacterial viability ([7]; 20 nM, 0 hours) was 0.02944 and 0.02382 and 0.02242 and 0.01876 and 0.02362 and 0.02115 and 0.02309 and 0.02203, the Relative bacterial viability ([7]; 20 nM, 2 hours) was 0.04282 and 0.03899 and 0.03091 and 0.03386 and 0.03007 and 0.02907 and 0.03321 and 0.0351 and the Relative bacterial viability ([7]; 20 nM, 4 hours) was 0.09761 and 0.08481 and 0.06333 and 0.08156 and 0.05837 and 0.05915 and 0.09197 and 0.0766. The Relative bacterial viability ([7]; 20 nM, 6 hours) was 0.09779 and 0.1224 and 0.09629 and 0.09367 and 0.1125 and 0.1318 and 0.1324 and 0.1243, the Relative bacterial viability ([7]; 20 nM, 8 hours) was 0.09766 and 0.1007 and 0.1109 and 0.1082 and 0.07161 and 0.0792 and 0.1047 and 0.1064 and the Relative bacterial viability ([7]; 20 nM, 10 hours) was 0.1166 and 0.1064 and 0.08667 and 0.1003 and 0.08673 and 0.1012 and 0.1144 and 0.09737. For the same compound, the Relative bacterial viability ([7]; 20 nM, 12 hours) was 0.09054 and 0.1107 and 0.09534 and 0.1014 and 0.09177 and 0.09711 and 0.09672 and 0.1035, the EC50 ([7]; Enterococcus faecium, relative bacterial viability after 14 h incubation) was 0.0084 µM and the EC50 ([8]; read-out: EC50) was greater than 100 µM. The EC50 [8, 10] was greater than 100 µM and the “selectivity index (S.I.): CC50 against each cell line / EC50 against E. faecium” value [9] was “less selective than (+)-SHIN-1, TMP and PMX”.

`Cc1n[nH]c2c1C(c1cc(N3CCCC3)cc(C(F)(F)F)c1)(C(C)C)C(C#N)=C(N)O2` (centres unmarked) [SHMT-IN-2] showed an EC50 ([1]; read-out: EC50) greater than 100 µM, an EC50 [1, 10] greater than 100 µM and an EC50 ([2]; read-out: EC50) greater than 100 µM. The EC50 [2, 10] was greater than 100 µM, the “ΔTm (thermal stability of efmSHMT)” value [3] was “did not stabilise efmSHMT significantly” and the EC50 ([4]; E. faecium JCM5804, 0.1 M folate) was “independent of FA”. It also gave an EC50 [4, 11] of 3.1 µM, an EC50 [4, 12] of 3.16 µM and an EC50 [4, 13] of 2.9 µM. For the same compound, the EC50 [4, 14] was 3.16 µM, the EC50 [4, 15] was 3 µM and the EC50 [4, 16] was 3.16 µM. For the same compound, the EC50 [4, 17] was 4 µM, the EC50 [4, 18] was 3.98 µM and the EC50 [4, 19] was 2.9 µM. For the same compound, the EC50 [4, 20] was 3.16 µM, the EC50 ([5]; E. faecium JCM5804, read-out: EC50) was 2.9 µM and the EC50 ([5]; E. faecium JCM5804, read-out: pEC50 ± S.E. (converted)) was 3.16 µM. The Ki [6] was “did not change the OD500; also recorded: did not bind”, the Relative bacterial viability ([7]; 40 μM, 0 hours) was 0.01862 and 0.0174 and 0.0205 and 0.01931 and 0.02646 and 0.02349 and 0.02966 and 0.03101 and the Relative bacterial viability ([7]; 40 μM, 2 hours) was 0.03093 and 0.0302 and 0.02505 and 0.02814 and 0.02877 and 0.02998 and 0.036 and 0.03921. The Relative bacterial viability ([7]; 40 μM, 6 hours) was 0.3579 and 0.3453 and 0.3941 and 0.3482 and 0.392 and 0.3797 and 0.4394 and 0.4307, the Relative bacterial viability ([7]; 40 μM, 8 hours) was 0.4949 and 0.5317 and 0.4381 and 0.3998 and 0.3519 and 0.3235 and 0.4823 and 0.3754 and the Relative bacterial viability ([7]; 40 μM, 10 hours) was 0.5237 and 0.542 and 0.4699 and 0.39 and 0.5132 and 0.4488 and 0.4691 and 0.4904. The Relative bacterial viability ([7]; 40 μM, 12 hours) was 0.55 and 0.5489 and 0.5001 and 0.5313 and 0.5571 and 0.5294 and 0.6254 and 0.5482, the Relative bacterial viability ([7]; 80 μM, 0 hours) was 0.02012 and 0.02269 and 0.02791 and 0.02552 and 0.02349 and 0.02305 and 0.03984 and 0.03245 and the Relative bacterial viability ([7]; 80 μM, 2 hours) was 0.03305 and 0.03431 and 0.03897 and 0.0377 and 0.0302 and 0.03755 and 0.04307 and 0.03606. For the same compound, the Relative bacterial viability ([7]; 80 μM, 4 hours) was 0.03849 and 0.03773 and 0.03537 and 0.04204 and 0.0354 and 0.0391 and 0.04337 and 0.03653, the Relative bacterial viability ([7]; 80 μM, 6 hours) was 0.04463 and 0.04595 and 0.05326 and 0.05339 and 0.04373 and 0.04075 and 0.04467 and 0.04119 and the Relative bacterial viability ([7]; 80 μM, 8 hours) was 0.04711 and 0.04935 and 0.05233 and 0.0524 and 0.04018 and 0.04838 and 0.04621 and 0.04757. For the same compound, the Relative bacterial viability ([7]; 80 μM, 10 hours) was 0.04986 and 0.05353 and 0.04783 and 0.04892, the Relative bacterial viability ([7]; 80 μM, 12 hours) was 0.04784 and 0.03996 and 0.04751 and 0.04436 and 0.04726 and 0.03481 and 0.04716 and 0.0494 and the “EC50 (bacterial viability)” value ([7]; relative bacterial viability after 14 h incubation) was “weaker activity than the turbidity detection result”. For the same compound, the EC50 ([8]; read-out: EC50) was no less than 100 µM, the EC50 [8, 10] was no less than 100 µM and the “selectivity index (S.I.): CC50 against each cell line / EC50 against E. faecium” value [9] was “less selective than (+)-SHIN-1, TMP and PMX”.
